Marks after values point to notes of the source that are not given here.
Tested on: osteoclast differentiation
Assay: Osteoclast differentiation in co-culture of mouse bone marrow cells and ST2 cells, TRAP staining (Examples 8-9)
Type: cell-based
Settings: for % number of osteoclast (vs. solvent control group): 0.1 μM each, day 7; for activity at 0.1 µM: Mus musculus, Osteoclast, 168 h, Individual treatment (compounds), day 7, read-out: % number of osteoclast (vs. solvent control group)
Procedure: The differentiation of osteoclast from mouse bone marrow cells was induced by using co-culture system, and inhibitory effect of the drug on osteoclast differentiation was evaluated by treatment of single or combination formulation. Co-culture was performed using mouse bone marrow cells and ST cells of bone marrow-derived stromal cell.
Femora and tibia were aseptically ectomized from 6˜8 week-old male ddY mice to harvest bone marrow cells by a general method using a syringe. The red blood cells were removed from the bone marrow cells, followed by centrifugation. The bone marrow cells were suspended in α-MEM medium supplemented with 10% fetal bovine serum, and the numbers of the eukaryotic cells in the harvested bone marrow cells were counted and then immediately used for a co-culture system.
ST2 cells (RIKEN Cell Bank, Tsukuba, Japan) were cultured in α-MEM medium supplemented with 10% fetal bovine serum until confluent. Then, these cells were diluted to a desired cell number, and used for the experiment.
The bone marrow cells (1×10^5 cells/well) and ST2 cells (3,000 cells/well) prepared in the above were plated in a 96-well plate using α-MEM medium supplemented with 10% fetal bovine serum. At this time, differentiation factors, 1α,25-dihydroxyvitamin D3 (10^−8 M, hereinbelow, referred to as vitamin D3) and dexamethasone (10^−8 M), were co-added to the medium to induce osteoclast differentiation. The medium was replaced with fresh media containing the differentiation factors every 2 to 3 days.
After 7 days, when multinucleated osteoclasts were observed, the medium was removed from the wells, and then the cells were fixed with PBS containing 10% Formalin. Tartrate-Resistant Acid Phosphatase (hereinbelow, referred to as TRAP) was used as a marker to measure the mature osteoclast in consideration of its characteristics showing a positive reaction to a TRAP staining solution. The TRAP staining solution was prepared in such the manner that a substrate, naphtol AS-MS phosphate and a coloring agent (Fast Red Violet LB salt) were dissolved in N,N-dimethylformamide. A 0.1 N NaHCO3 buffer solution containing 50 mM tartaric acid was added thereto, and the mixture was stored at a refrigerator prior to use as a staining solution. The osteoclasts with 6-7 or more nuclei showing a TRAP-positive reaction were counted under a microscope.
Alendronic acid was dissolved in distilled water at a concentration of 0.1 mM, and benzamidine derivatives were dissolved in DMSO at a concentration of 0.1 mM. All of them were diluted 1,000 fold with the differentiation media to a final concentration of 0.1 μM, respectively. In this connection, a control group was maintained in 0.1% DMSO.
As the above described, the sample substances and cells, which were diluted to the desired concentrations, were plated in 96-well plate, and co-cultured. On days 3 and 5 of culture, the media were replaced with fresh differentiation media containing the sample substances. On day 7 of culture, TRAP staining was performed to count the mature multinucleated osteoclast that was formed by differentiation. The mature osteoclasts with 6 or more nuclei were counted under a microscope. The results were expressed as a percentage (%) of the number of mature osteoclast observed in each experimental group, when the number of mature osteoclast in the control group (solvent only) was regarded as 100%. The experiment was performed with 4 wells per experimental group (n=4), and the results were expressed as mean value±standard deviation. In addition, the experiment was repeated at least two times, and Student t-test was applied for significant difference between experimental groups.
The experiment was performed in the same manner as in Example 8 to evaluate the effect of individual or combination treatment of risedronic acid and benzamidine derivatives of Formula 1 on osteoclast differentiation, except using 0.1 μM risedronic acid instead of 0.1 μM alendronic acid. […]

[1] = Combination treatment (alendronic acid + compounds)
[2] = Combination treatment (risedronic acid + compounds)

| Compound | % number of osteoclast (vs. solvent control group) [1] | % number of osteoclast (vs. solvent control group) [2] | activity at 0.1 µM |
| --- | --- | --- | --- |
| Cc1nc(-c2ccc(OCCCCCOc3ccc(C(=N)NO)cc3)cc2)cs1 [Compound 3, N-hydroxy-4-{5-[4-(2-methyl-1,3-thiazol-4-yl)phenoxy]pentyloxy}-benzamidine] | 40 ± 4.6^b % | 33 ± 6.8^c % | 52 ± 8.9% |
| N=C(NO)c1ccc(OCCCCCOc2ccc(-c3csc(-c4cccnc4)n3)cc2)cc1 [Compound 7, N-hydroxy-4-{5-[4-(2-pyridine-3-yl-1,3-thiazol-4-yl)phenoxy]pentyloxy}-benzamidine] | 35 ± 7.1^b % | 34 ± 10.1^c % | 52 ± 4.8% |
| N=C(NO)c1ccc(OCCCCCOc2ccc(-c3csc(C4CCCCC4)n3)cc2)cc1 [Compound 8, N-hydroxy-4-{5-[4-(2-cyclohexyl-1,3-thiazol-4-yl)phenoxy]pentyloxy}-benzamidine] | 22 ± 3.4^ab % | 27 ± 3.8^ac % | 65 ± 10.4% |
| CCCCCc1nc(-c2ccc(OCCCCCOc3ccc(C(=N)NO)cc3)cc2)cs1 [Compound 9, N-hydroxy-4-{5-[4-(2-pentyl-1,3-thiazol-4-yl)phenoxy]pentyloxy}-benzamidine] | 52 ± 15.8% | 43 ± 2.6^ac % | 64 ± 3.4% |
| CCCCCc1nc(-c2ccc(OCCCCCOc3ccc(C(=N)NO)cc3)cc2)c(C)s1 [Compound 15, N-hydroxy-4-{5-[4-(5-methyl-2-pentyl-1,3-thiazol-4-yl)phenoxy]pentyloxy}-benzamidine] | 43 ± 11.4% | 45 ± 9.2^ac % | 69 ± 5.5% |
| CCc1sc(-c2cccnc2)nc1-c1ccc(OCCCCCOc2ccc(C(=N)NO)cc2)cc1 [Compound 21, N-hydroxy-4-{5-[4-(5-ethyl-2-pyridin-3-yl-1,3-thiazol-4-yl)phenoxy]pentyloxy}-benzamidine] | 22 ± 7.1^ab % | 47 ± 10.1% | 52 ± 10.4% |
| CCCCc1sc(C(C)(C)C)nc1-c1ccc(OCCCCCOc2ccc(C(=N)NO)cc2)cc1 [Compound 37, N-hydroxy-4-{5-[4-(5-butyl-2-t-butyl-1,3-thiazol-4-yl)phenoxy]pentyloxy}-benzamidine] | 30 ± 9.9^b % | 36 ± 14.4^c % | 68 ± 18.9% |
| N=C(NO)c1ccc(OCCCCCOc2ccc(-c3nc(-c4ccccc4)sc3Cc3ccccc3)cc2)cc1 [Compound 40, N-hydroxy-4-{5-[4-(5-benzyl-2-phenyl-1,3-thiazol-4-yl)phenoxy]pentyloxy}-benzamidine] | 28 ± 4.1^ab % | 20 ± 3.4^ac % | 66 ± 7.1% |
| N=C(NO)c1ccc(OCCCCCOc2ccc(-c3nc(-c4cccnc4)sc3Cc3ccccc3)cc2)cc1 [Compound 41, N-hydroxy-4-{5-[4-(5-benzyl-2-pyridin-3-yl-1,3-thiazol-4-yl)phenoxy]pentyloxy}-benzamidine] | 29 ± 5.0^b % | 31 ± 2.6^c % | 31 ± 9.4% |
| Cc1nc(-c2ccc(OCCCCCOc3ccc(C(=N)NO)cc3)cc2)c(CCCl)s1 [Compound 42, N-hydroxy-4-{5-[4-(5-(2-chloro-ethyl)-2-methyl-1,3-thiazol-4-yl)phenoxy]pentyloxy}-benzamidine] | 33 ± 1.9^ab % | 32 ± 8.0^ac % | 69 ± 11.4% |
| Cc1nc(-c2ccc(OCCCCCOc3ccc(C(=N)NO)cc3)cc2)c(C2CCCC2)s1 [Compound 43, N-hydroxy-4-{5-[4-(5-cyclopentyl-2-methyl-1,3-thiazol-4-yl)phenoxy]pentyloxy}-benzamidine] | 32 ± 6.6^ab % | 40 ± 7.8^c % | 74 ± 14.6% |
| Cc1nc(-c2ccc(OCCCCCOc3ccc(C(=N)NO)cc3)cc2)c(CC2CCCC2)s1 [Compound 45, N-hydroxy-4-{5-[4-(5-cyclopentylmethyl-2-methyl-1,3-thiazol-4-yl)phenoxy]pentyloxy}-benzamidine] | 49 ± 8.1^ab % | 38 ± 11.9^ac % | 72 ± 4.6% |
| CCc1nc(-c2ccc(OCCCCCOc3ccc(C(=N)NO)cc3)cc2)c(CC2CCCC2)s1 [Compound 46, N-hydroxy-4-{5-[4-(5-cyclopentylmethyl-2-ethyl-1,3-thiazol-4-yl)phenoxy]pentyloxy}-benzamidine] | 36 ± 5.1^ab % | 31 ± 8.5^ac % | 71 ± 9.4% |
| CC(C)c1nc(-c2ccc(OCCCCCOc3ccc(C(=N)NO)cc3)cc2)c(CC2CCCC2)s1 [Compound 47, N-hydroxy-4-{5-[4-(5-cyclopentylmethyl-2-isopropyl-1,3-thiazol-4-yl)phenoxy]pentyloxy}-benzamidine] | 42 ± 4.6^b % | 32 ± 3.0^ac % | 57 ± 7.9% |
| Cc1nc(-c2ccc(OCCCCCOc3ccc(C(=N)N)cc3)cc2)c(C)s1 [Compound 54, 4-{5-[4-(2,5-dimethyl-1,3-thiazol-4-yl)phenoxy]pentyloxy}-benzamidine] | 20 ± 4.1^ab % | 19 ± 4.9^ac % | 41 ± 8.3% |
| Cc1sc(NC(=N)N)nc1-c1ccc(OCCCCCOc2ccc(C(=N)NO)cc2)cc1 [Compound 59, N-hydroxy-4-{5-[4-(2-guanidino-5-methyl-1,3-thiazol-4-yl)phenoxy]pentyloxy}-benzamidine] | 34 ± 2.2^ab % | 33 ± 5.1^ac % | 55 ± 6.5% |
| N=C(NO)c1ccc(OCCCCCOc2ccc(-c3nc(N)sc3CC3CCCC3)cc2)cc1 [Compound 67, N-hydroxy-4-{5-[4-(2-amino-5-cyclopentylmethyl-1,3-thiazol-4-yl)phenoxy]pentyloxy}-benzamidine] | 53 ± 6.4^b % | 36 ± 1.7^ac % | 74 ± 11.7% |
| CCCN1CCC(c2nc(-c3ccc(OCCCCCOc4ccc(C(=N)NO)cc4)cc3)c(CC3CCCC3)s2)CC1 [Compound 68, N-hydroxy-4-{5-[4-(5-cyclopentylmethyl-2-(1-propyl-piperidin-4-yl)-1,3-thiazol-4-yl)phenoxy]pentyloxy}-benzamidine] | 14 ± 1.4^ab % | 8 ± 1.9^ac % | 42 ± 6.9% |
| Cc1sc(NC(=O)C(C)C)nc1-c1ccc(OCCCCCOc2ccc(C(=N)NO)cc2)cc1 [Compound 69, N-hydroxy-4-{5-[4-(2-(isobutyryl)amino-5-methyl-1,3-thiazol-4-yl)phenoxy]pentyloxy}-benzamidine] | 49 ± 7.8^ab % | 44 ± 1.4^ac % | 80 ± 11.6% |
| CCCN1CCC(c2nc(-c3ccc(OCCCCCOc4ccc(C(=N)NO)cc4)cc3)c(C)s2)CC1 [Compound 72, N-hydroxy-4-{5-[4-(5-methyl-2-(1-propyl-piperidin-4-yl)-1,3-thiazol-4-yl)phenoxy]pentyloxy}-benzamidine] | 30 ± 4.0^ab % | 12 ± 3.2^ac % | 63 ± 1.1% |
